# According to ChEMBL document CHEMBL2429768, “Eco-friendly synthesis and antimicrobial activities of substituted-5-(1H-indol-3-yl)methylene)-2,2-dimethyl-1,3-dioxane-4,6-dione derivatives” (2013):
# Legend:
# Type in all cases: functional
# Bacillus subtilis [1] = assay: Antibacterial activity against Bacillus subtilis at 100 ug/ml after 24 hrs by agar well diffusion method; settings: read-out: DIZ
# Aspergillus niger [2] = assay: Antifungal activity against Aspergillus niger at 100 ug/ml after 72 hrs by agar well diffusion method; settings: read-out: DIZ
# Aspergillus flavus [3] = assay: Antifungal activity against Aspergillus flavus at 300 ug/ml after 72 hrs by agar well diffusion method; settings: read-out: DIZ
# Fusarium oxysporum [4] = assay: Antifungal activity against Fusarium oxysporum at 300 ug/ml after 72 hrs by agar well diffusion method; settings: read-out: DIZ
# Aspergillus flavus [5] = assay: Antifungal activity against Aspergillus flavus at 50 ug/ml after 72 hrs by agar well diffusion method; settings: read-out: DIZ
# Escherichia coli [6] = assay: Antibacterial activity against Escherichia coli ATCC 8739 at 100 ug/ml after 24 hrs by agar well diffusion method; settings: ATCC 8739, 24 h, read-out: DIZ
# Staphylococcus aureus [7] = assay: Antibacterial activity against Staphylococcus aureus ATCC 6538 at 500 ug/ml after 24 hrs by agar well diffusion method; settings: ATCC 6538, 24 h, read-out: DIZ
# Staphylococcus aureus [8] = assay: Antibacterial activity against Staphylococcus aureus ATCC 6538 at 200 ug/ml after 24 hrs by agar well diffusion method; settings: ATCC 6538, 24 h, read-out: DIZ
# Aspergillus flavus [9] = assay: Antifungal activity against Aspergillus flavus at 500 ug/ml after 72 hrs by agar well diffusion method; settings: read-out: DIZ
# Klebsiella pneumoniae [10] = assay: Antibacterial activity against Klebsiella pneumoniae at 500 ug/ml after 24 hrs by agar well diffusion method; settings: read-out: DIZ
# Aspergillus flavus [11] = assay: Antifungal activity against Aspergillus flavus after 72 hrs by agar well diffusion method
# Rhizoctonia solani [12] = assay: Antifungal activity against Rhizoctonia solani at 200 ug/ml after 72 hrs by agar well diffusion method; settings: read-out: DIZ
# Escherichia coli [13] = assay: Antibacterial activity against Escherichia coli ATCC 8739 after 24 hrs by agar well diffusion method; settings: ATCC 8739, 24 h
# Aspergillus niger [14] = assay: Antifungal activity against Aspergillus niger at 500 ug/ml after 72 hrs by agar well diffusion method; settings: read-out: DIZ
# Aspergillus flavus [15] = assay: Antifungal activity against Aspergillus flavus at 100 ug/ml after 72 hrs by agar well diffusion method; settings: read-out: DIZ
# Bacillus subtilis [16] = assay: Antibacterial activity against Bacillus subtilis at 300 ug/ml after 24 hrs by agar well diffusion method; settings: read-out: DIZ
# Aspergillus niger [17] = assay: Antifungal activity against Aspergillus niger after 72 hrs by agar well diffusion method
# Fusarium oxysporum [18] = assay: Antifungal activity against Fusarium oxysporum after 72 hrs by agar well diffusion method
# Rhizoctonia solani [19] = assay: Antifungal activity against Rhizoctonia solani at 100 ug/ml after 72 hrs by agar well diffusion method; settings: read-out: DIZ
# Bacillus subtilis [20] = assay: Antibacterial activity against Bacillus subtilis at 500 ug/ml after 24 hrs by agar well diffusion method; settings: read-out: DIZ
# Staphylococcus aureus [21] = assay: Antibacterial activity against Staphylococcus aureus ATCC 6538 at 100 ug/ml after 24 hrs by agar well diffusion method; settings: ATCC 6538, 24 h, read-out: DIZ
# Fusarium oxysporum [22] = assay: Antifungal activity against Fusarium oxysporum at 500 ug/ml after 72 hrs by agar well diffusion method; settings: read-out: DIZ
# Aspergillus flavus [23] = assay: Antifungal activity against Aspergillus flavus at 200 ug/ml after 72 hrs by agar well diffusion method; settings: read-out: DIZ
# Bacillus subtilis [24] = assay: Antibacterial activity against Bacillus subtilis at 200 ug/ml after 24 hrs by agar well diffusion method; settings: read-out: DIZ
# Fusarium oxysporum [25] = assay: Antifungal activity against Fusarium oxysporum at 50 ug/ml after 72 hrs by agar well diffusion method; settings: read-out: DIZ
# Klebsiella pneumoniae [26] = assay: Antibacterial activity against Klebsiella pneumoniae at 200 ug/ml after 24 hrs by agar well diffusion method; settings: read-out: DIZ
# Escherichia coli [27] = assay: Antibacterial activity against Escherichia coli ATCC 8739 at 300 ug/ml after 24 hrs by agar well diffusion method; settings: ATCC 8739, 24 h, read-out: DIZ
# Klebsiella pneumoniae [28] = assay: Antibacterial activity against Klebsiella pneumoniae at 300 ug/ml after 24 hrs by agar well diffusion method; settings: read-out: DIZ
# Klebsiella pneumoniae [29] = assay: Antibacterial activity against Klebsiella pneumoniae at 50 ug/ml after 24 hrs by agar well diffusion method; settings: read-out: DIZ
# Rhizoctonia solani [30] = assay: Antifungal activity against Rhizoctonia solani at 300 ug/ml after 72 hrs by agar well diffusion method; settings: read-out: DIZ
# Staphylococcus aureus [31] = assay: Antibacterial activity against Staphylococcus aureus ATCC 6538 after 24 hrs by agar well diffusion method; settings: ATCC 6538, 24 h
# Rhizoctonia solani [32] = assay: Antifungal activity against Rhizoctonia solani after 72 hrs by agar well diffusion method
# Rhizoctonia solani [33] = assay: Antifungal activity against Rhizoctonia solani at 50 ug/ml after 72 hrs by agar well diffusion method; settings: read-out: DIZ
# Escherichia coli [34] = assay: Antibacterial activity against Escherichia coli ATCC 8739 at 50 ug/ml after 24 hrs by agar well diffusion method; settings: ATCC 8739, 24 h, read-out: DIZ
# Aspergillus niger [35] = assay: Antifungal activity against Aspergillus niger at 200 ug/ml after 72 hrs by agar well diffusion method; settings: read-out: DIZ
# Bacillus subtilis [36] = assay: Antibacterial activity against Bacillus subtilis at 50 ug/ml after 24 hrs by agar well diffusion method; settings: read-out: DIZ
# Klebsiella pneumoniae [37] = assay: Antibacterial activity against Klebsiella pneumoniae after 24 hrs by agar well diffusion method
# Aspergillus niger [38] = assay: Antifungal activity against Aspergillus niger at 50 ug/ml after 72 hrs by agar well diffusion method; settings: read-out: DIZ
# Escherichia coli [39] = assay: Antibacterial activity against Escherichia coli ATCC 8739 at 200 ug/ml after 24 hrs by agar well diffusion method; settings: ATCC 8739, 24 h, read-out: DIZ
# Fusarium oxysporum [40] = assay: Antifungal activity against Fusarium oxysporum at 200 ug/ml after 72 hrs by agar well diffusion method; settings: read-out: DIZ
# Escherichia coli [41] = assay: Antibacterial activity against Escherichia coli ATCC 8739 at 500 ug/ml after 24 hrs by agar well diffusion method; settings: ATCC 8739, 24 h, read-out: DIZ
# Staphylococcus aureus [42] = assay: Antibacterial activity against Staphylococcus aureus ATCC 6538 at 300 ug/ml after 24 hrs by agar well diffusion method; settings: ATCC 6538, 24 h, read-out: DIZ
# Rhizoctonia solani [43] = assay: Antifungal activity against Rhizoctonia solani at 500 ug/ml after 72 hrs by agar well diffusion method; settings: read-out: DIZ
# Fusarium oxysporum [44] = assay: Antifungal activity against Fusarium oxysporum at 100 ug/ml after 72 hrs by agar well diffusion method; settings: read-out: DIZ
# Aspergillus niger [45] = assay: Antifungal activity against Aspergillus niger at 300 ug/ml after 72 hrs by agar well diffusion method; settings: read-out: DIZ
# Bacillus subtilis [46] = assay: Antibacterial activity against Bacillus subtilis after 24 hrs by agar well diffusion method
# Staphylococcus aureus [47] = assay: Antibacterial activity against Staphylococcus aureus ATCC 6538 at 50 ug/ml after 24 hrs by agar well diffusion method; settings: ATCC 6538, 24 h, read-out: DIZ
# Klebsiella pneumoniae [48] = assay: Antibacterial activity against Klebsiella pneumoniae at 100 ug/ml after 24 hrs by agar well diffusion method; settings: read-out: DIZ
compound,measurement,setting,value
COc1ccc2c(c1)c(C=C1C(=O)OC(C)(C)OC1=O)cn2C,zone of inhibition at 100 µg/mL,Bacillus subtilis [1],9 mm
same,zone of inhibition at 100 µg/mL,Aspergillus niger [2],10 mm
same,zone of inhibition at 300 µg/mL,Aspergillus flavus [3],15 mm
same,zone of inhibition at 300 µg/mL,Fusarium oxysporum [4],21 mm
same,zone of inhibition at 50 µg/mL,Aspergillus flavus [5],4 mm
same,zone of inhibition at 100 µg/mL,Escherichia coli [6],13 mm
same,zone of inhibition at 500 µg/mL,Staphylococcus aureus [7],26 mm
same,zone of inhibition at 200 µg/mL,Staphylococcus aureus [8],13 mm
same,zone of inhibition at 500 µg/mL,Aspergillus flavus [9],23 mm
same,zone of inhibition at 500 µg/mL,Klebsiella pneumoniae [10],32 mm
same,MIC,Aspergillus flavus [11],40 µg/mL
same,zone of inhibition at 200 µg/mL,Rhizoctonia solani [12],16 mm
same,MIC,Escherichia coli [13],15 µg/mL
same,zone of inhibition at 500 µg/mL,Aspergillus niger [14],25 mm
same,zone of inhibition at 100 µg/mL,Aspergillus flavus [15],9 mm
same,zone of inhibition at 300 µg/mL,Bacillus subtilis [16],14 mm
same,MIC,Aspergillus niger [17],40 µg/mL
same,MIC,Fusarium oxysporum [18],35 µg/mL
same,zone of inhibition at 100 µg/mL,Rhizoctonia solani [19],12 mm
same,zone of inhibition at 500 µg/mL,Bacillus subtilis [20],22 mm
same,zone of inhibition at 100 µg/mL,Staphylococcus aureus [21],10 mm
same,zone of inhibition at 500 µg/mL,Fusarium oxysporum [22],29 mm
same,zone of inhibition at 200 µg/mL,Aspergillus flavus [23],12 mm
same,zone of inhibition at 200 µg/mL,Bacillus subtilis [24],11 mm
same,zone of inhibition at 50 µg/mL,Fusarium oxysporum [25],7 mm
same,zone of inhibition at 200 µg/mL,Klebsiella pneumoniae [26],18 mm
same,zone of inhibition at 300 µg/mL,Escherichia coli [27],20 mm
same,zone of inhibition at 300 µg/mL,Klebsiella pneumoniae [28],23 mm
same,zone of inhibition at 50 µg/mL,Klebsiella pneumoniae [29],9 mm
same,zone of inhibition at 300 µg/mL,Rhizoctonia solani [30],21 mm
same,MIC,Staphylococcus aureus [31],25 µg/mL
same,MIC,Rhizoctonia solani [32],35 µg/mL
same,zone of inhibition at 50 µg/mL,Rhizoctonia solani [33],7 mm
same,zone of inhibition at 50 µg/mL,Escherichia coli [34],8 mm
same,zone of inhibition at 200 µg/mL,Aspergillus niger [35],14 mm
same,zone of inhibition at 50 µg/mL,Bacillus subtilis [36],4 mm
same,MIC,Klebsiella pneumoniae [37],15 µg/mL
same,zone of inhibition at 50 µg/mL,Aspergillus niger [38],6 mm
same,zone of inhibition at 200 µg/mL,Escherichia coli [39],15 mm
same,zone of inhibition at 200 µg/mL,Fusarium oxysporum [40],16 mm
same,zone of inhibition at 500 µg/mL,Escherichia coli [41],31 mm
same,zone of inhibition at 300 µg/mL,Staphylococcus aureus [42],16 mm
same,zone of inhibition at 500 µg/mL,Rhizoctonia solani [43],29 mm
same,zone of inhibition at 100 µg/mL,Fusarium oxysporum [44],12 mm
same,zone of inhibition at 300 µg/mL,Aspergillus niger [45],18 mm
same,MIC,Bacillus subtilis [46],30 µg/mL
same,zone of inhibition at 50 µg/mL,Staphylococcus aureus [47],6 mm
same,zone of inhibition at 100 µg/mL,Klebsiella pneumoniae [48],14 mm
CC1(C)OC(=O)C(=Cc2c[nH]c3ccccc23)C(=O)O1,zone of inhibition at 100 µg/mL,Bacillus subtilis [1],11 mm
same,zone of inhibition at 100 µg/mL,Aspergillus niger [2],11 mm
same,zone of inhibition at 300 µg/mL,Aspergillus flavus [3],17 mm
same,zone of inhibition at 300 µg/mL,Fusarium oxysporum [4],21 mm
same,zone of inhibition at 50 µg/mL,Aspergillus flavus [5],5 mm
same,zone of inhibition at 100 µg/mL,Escherichia coli [6],15 mm
same,zone of inhibition at 500 µg/mL,Staphylococcus aureus [7],27 mm
same,zone of inhibition at 200 µg/mL,Staphylococcus aureus [8],16 mm
same,zone of inhibition at 500 µg/mL,Aspergillus flavus [9],24 mm
same,zone of inhibition at 500 µg/mL,Klebsiella pneumoniae [10],33 mm
same,MIC,Aspergillus flavus [11],35 µg/mL
same,zone of inhibition at 200 µg/mL,Rhizoctonia solani [12],19 mm
same,MIC,Escherichia coli [13],10 µg/mL
same,zone of inhibition at 500 µg/mL,Aspergillus niger [14],26 mm
same,zone of inhibition at 100 µg/mL,Aspergillus flavus [15],10 mm
same,zone of inhibition at 300 µg/mL,Bacillus subtilis [16],17 mm
same,MIC,Aspergillus niger [17],30 µg/mL
same,MIC,Fusarium oxysporum [18],25 µg/mL
same,zone of inhibition at 100 µg/mL,Rhizoctonia solani [19],15 mm
same,zone of inhibition at 500 µg/mL,Bacillus subtilis [20],25 mm
same,zone of inhibition at 100 µg/mL,Staphylococcus aureus [21],12 mm
same,zone of inhibition at 500 µg/mL,Fusarium oxysporum [22],31 mm
same,zone of inhibition at 200 µg/mL,Aspergillus flavus [23],13 mm
same,zone of inhibition at 200 µg/mL,Bacillus subtilis [24],14 mm
same,zone of inhibition at 50 µg/mL,Fusarium oxysporum [25],10 mm
same,zone of inhibition at 200 µg/mL,Klebsiella pneumoniae [26],20 mm
same,zone of inhibition at 300 µg/mL,Escherichia coli [27],22 mm
same,zone of inhibition at 300 µg/mL,Klebsiella pneumoniae [28],25 mm
same,zone of inhibition at 50 µg/mL,Klebsiella pneumoniae [29],11 mm
same,zone of inhibition at 300 µg/mL,Rhizoctonia solani [30],24 mm
same,MIC,Staphylococcus aureus [31],20 µg/mL
same,MIC,Rhizoctonia solani [32],25 µg/mL
same,zone of inhibition at 50 µg/mL,Rhizoctonia solani [33],10 mm
same,zone of inhibition at 50 µg/mL,Escherichia coli [34],10 mm
same,zone of inhibition at 200 µg/mL,Aspergillus niger [35],15 mm
same,zone of inhibition at 50 µg/mL,Bacillus subtilis [36],6 mm
same,MIC,Klebsiella pneumoniae [37],10 µg/mL
same,zone of inhibition at 50 µg/mL,Aspergillus niger [38],7 mm
same,zone of inhibition at 200 µg/mL,Escherichia coli [39],18 mm
same,zone of inhibition at 200 µg/mL,Fusarium oxysporum [40],17 mm
same,zone of inhibition at 500 µg/mL,Escherichia coli [41],32 mm
same,zone of inhibition at 300 µg/mL,Staphylococcus aureus [42],20 mm
same,zone of inhibition at 500 µg/mL,Rhizoctonia solani [43],32 mm
same,zone of inhibition at 100 µg/mL,Fusarium oxysporum [44],14 mm
same,zone of inhibition at 300 µg/mL,Aspergillus niger [45],19 mm
same,MIC,Bacillus subtilis [46],20 µg/mL
same,zone of inhibition at 50 µg/mL,Staphylococcus aureus [47],8 mm
same,zone of inhibition at 100 µg/mL,Klebsiella pneumoniae [48],16 mm
